Where a name gives a salt, the structure may show the parent alone. Read-outs that look alike come from different tables or passages of the source.
Columns and labels:
[1] = test system: T. cruzi intracellular amastigotes; design: method as in PMID 27120069; settings: treatment for 48 hours; cited from earlier work
[2] = test system: T. cruzi intracellular amastigotes; assay: Image-based assay of the number of T. cruzi infected cells (intracellular amastigotes in 3T3 host cells); assay type: cell-based, Trypanosoma cruzi; settings: for inhibition at 183 µM / IC50 / Emax: Trypanosoma cruzi
Experimental: (§1) Parasites and host cells were maintained as outlined previously. Briefly, host 3T3 fibroblasts (ATCC, CCL-92) were grown in RPMI medium (Thermo Fisher Scientific, USA) with no phenol red, supplemented with 10% FBS (Thermo Fisher Scientific, USA) and incubated at 37°C in 5% CO2. Host cells were harvested at 70% confluency and were split every 2–3 days in 175 cm^2 flasks. 3T3 cells were cultured up to passage 7 as contact inhibition was reduced or lost at higher passages. Prior to infection with T. cruzi trypomastigotes, host cells were seeded at 1.2 x 10^6 cells in 75 cm^2 or 4 x 10^5 cells in 25 cm^2 flasks and grown for 24 hours before parasite addition. Parasites were added at a multiplicity of infection (MOI) of 10:1 and incubated for 24 hours before non-infected trypomastigotes were washed off the host cell bed with PBS supplemented with Ca^2+ and Mg^2+ (Thermo Fisher Scientific, USA). Incubation was continued for a further 3 days, until tissue culture trypomastigotes began to egress from host cells. Egressed parasites were used for assays or to continue the infective life cycle in vitro.
(§2) The activity of the nucleoside analogues against T. cruzi intracellular amastigotes following 24, 48 hours exposure and compound wash off, was determined using image-based techniques as previously described. Briefly, 14-point serial dilutions of the compounds in 100% DMSO were prepared and then further diluted in sterile water at a ratio of 1:21 compound: water. Five microliters of the diluted compounds were added to wells of T. cruzi infected host cells, using a MiniTrak compound handling device (Perkin Elmer, USA) with final concentrations in the plate ranging from 183 μM to 4.6 x 10^−4 μM. All experiments were performed with two separate biological replicates.
IC50 values for inhibitory activity of both the nucleoside analogues tested as DNA probes and known inhibitors tested to determine their effect on replication of T. cruzi were calculated in GraphPad Prism 5, using sigmoidal dose response with variable slope. […] The p-value for difference in the % activity at Emax concentrations for compounds with known activity (EdU identified parasites, compared to Hoechst identified parasites) against T. cruzi was determined using GraphPad Prism 5, using an unpaired student’s t-test. […] The Emax for each compound was at least two data points in from the beginning of the plateau of activity in the IC50 curve, as previously described.

[3] = test system: T. cruzi intracellular amastigotes; assay: as above; assay type: cell-based, Trypanosoma cruzi; settings: 2 and 4 hour exposures; 73 μM
T. cruzi amastigote DNA = assay: Incorporation of pyrimidine nucleoside analogues into T. cruzi amastigote DNA (click chemistry, colocalisation with Hoechst); assay type: cell-based, Trypanosoma cruzi
Experimental: T. cruzi infected 3T3 fibroblasts were initially exposed to nucleoside analogues for 48 hours at concentrations ranging from 73 μM to 1.8 x10^-4 μM. Host cell, parasite and compound additions were carried out as previously described. Cells were then stained using a click chemistry azide cocktail, followed by Hoechst to identify nuclear material, as previously reported. The freshly prepared azide cocktail consisted of a final concentration of 5 μM of Alexa Fluor 488 azide (Thermo Fisher Scientific, USA), 1 mM copper sulfate (Sigma Aldrich, USA) and 100 mM sodium ascorbate (Sigma Aldrich, USA), in DPBS. Wells were imaged on an Opera image-based reader (Perkin Elmer, USA) at 20x magnification with 405 nm (defined as Hoechst channel) and 488 nm (defined as Alexa 488 channel) lasers using filter sets/bandwidth (emission) of 450/50 nm and 540/75 nm, respectively. To determine nucleoside analogue incorporation into T. cruzi amastigote DNA, a script was developed utilising the Columbus (PerkinElmer, USA) image-based analysis and data handling platform (CHEMICAL LABEL INCORPORATION SCRIPT). Nucleoside analogues were also tested for DNA incorporation following 2, 4 and 24 hours exposure, at the same concentrations. All experiments were performed in duplicate. The colocalisation of nucleoside analogues and Hoechst (replicating parasites) at each time point (48, 4 and 2 hours) was compared using GraphPad Prism 5.
A CHEMICAL LABEL INCORPORATION SCRIPT developed in Columbus firstly identified Hoechst stained parasites within host cells by spot analysis, utilizing the same building block analysis as we had previously developed to determine T. cruzi infected cells. The physical definition of amastigote DNA was identified by Hoechst, with the only modification being that as there was no cytoplasmic marker, thus segmentation borders in the Hoechst channel were applied, which effectively separated host cells (Fig 2). Further building blocks were added to calculate the intensity of Alexa Fluor 488 within the spots identified by Hoechst, in infected cells. This script was first applied to images to determine the mean fluorescence intensity in the Alexa 488 channel of Hoechst identified parasites, without the addition of the chemical label. The mean plus three times the standard deviation of this intensity was used to define values above background, thus the minimum intensity above background required to identify parasite DNA which successfully incorporated the chemical label. An input box was incorporated into the script, in which this minimum intensity above background was entered. Parameters of the developed script, “CHEMICAL LABEL INCORPORATION” are shown in S1 Table.
• Number of T. cruzi amastigote infected cells (≥5 parasites per cell, identified with Hoechst). • Number of Hoechst identified T. cruzi parasites (in infected cells). • Number of parasites incorporating chemical label (T. cruzi parasites with Alexa 488 intensity above background, in infected cells). • % chemical label incorporation. Alexa 488 spots in infected cells (above background) NO / Hoechst spots in infected cells NO *100 = Percentage colocalisation; where NO = number of objects. • Number of host cells.

3T3 cells = assay: Image-based assay, effect on 3T3 host cells; assay type: cell-based; settings: for Host cell 3T3 IC50 value 48 h: highest test concentration 183 μM
Experimental: as §1
as §2, with “The activity of the nucleoside analogues against T. cruzi intracellular amastigotes following 24, 48 hours exposure and compound wash off, was determined using image-based techniques as previously described.” left out
Image analysis was performed with a script developed in Columbus software (CHEMICAL LABEL INCORPORATION SCRIPT). Control wells were also imaged at an increased, 60x magnification to show the distribution of staining and the structure of the parasites within host cells. Eight background control wells consisted of infected host cells, fixed and exposed to Hoechst and the click chemistry cocktail, without the addition of the chemical probe EdU. […] The percentage activity of compounds against parasite number / infected cells (identified with Hoechst) was calculated against a positive control of 12 μM of NFX for the parasite and 30 μM of PURO the host cells; and a negative control of 0.47% DMSO. All images taken were not modified and were taken on an Opera, confocal image-based reader.

HEK293 cells = assay: Redox-based assay to assess HEK293 viability; assay type: cell-based, human; settings: 48 hours exposure; highest test concentration 87 μM; EdU value estimated, relative to Emax plateau of 57%
Experimental: To determine the effect of the nucleoside analogues against a replicating mammalian cell line, analogues were tested against HEK293 cells, utilising a REDOX-based metabolic assay to assess cell viability as previously described. […] Experiments were performed over two biological replicates.

[4] = test system: T. cruzi intracellular amastigotes; assay: Detection of T. cruzi replication following exposure to inhibitors (EdU incorporation vs Hoechst); assay type: cell-based, Trypanosoma cruzi; settings: Trypanosoma cruzi; for IC50: 48 hours exposure, mean ± SD
Experimental: The addition of host cells, parasites and compounds were as described for the T. cruzi image based method previously reported. […] Addition of nuclear and cytoplasmic dyes was undertaken as previously reported and images captured on an Opera confocal image-based system at 20x magnification. Image analysis was performed with a script developed in Columbus software (CHEMICAL LABEL INCORPORATION SCRIPT). Control wells were also imaged at an increased, 60x magnification to show the distribution of staining and the structure of the parasites within host cells. Eight background control wells consisted of infected host cells, fixed and exposed to Hoechst and the click chemistry cocktail, without the addition of the chemical probe EdU. […] All images taken were not modified and were taken on an Opera, confocal image-based reader.

[5] = 24 hours exposure, highest test concentration 183 μM, read-out: T. cruzi 24 IC50 value
[6] = 24 hours exposure, read-out: T. cruzi 24 relative Emax (in brackets) (converted)
[7] = 48 hours incubation, highest test concentration 183 μM, read-out: T. cruzi 48 IC50 value
[8] = 48 hours incubation, read-out: T. cruzi 48 relative Emax (in brackets) (converted)

## CN1CCC[C@@H]1CCO[C@](C)(c1ccccc1)c1ccc(Cl)cc1 [CF, clemastine fumarate]
[1]
  T. cruzi infected cells, identified with Hoechst, remaining: 3%

## C#Cc1cn([C@H]2C[C@H](O)[C@@H](CO)O2)c(=O)nc1N [EdC, 5-ethynyl-2′-deoxy-cytidine]
[2]; 48 hours exposure
  SI (selectivity index to T. cruzi intracellular amastigotes in relation to HEK293 cells): > 26
[2]; at 183 μM, 48 hours incubation, wash off, further 72 hours, read-out: T. cruzi Wash off percentage inhibition at the highest test concentration
  inhibition at 183 µM: 90%
[2]; [5]
  IC50: 12500 ± 2000 nM
[2]; [6]
  Emax: 69%
[2]; [7]
  IC50: 7100 ± 3700 nM
[2]; [8]
  Emax: 87%
[3]
  activity against T. cruzi amastigote growth after short exposure: less than 20%
T. cruzi amastigote DNA; 2 hours, 37 μM
  % of parasites with incorporation: 71 ± 2.9%
T. cruzi amastigote DNA; 4 hours, 7.3 μM
  % of parasites with incorporation: 84 ± 3.5%
T. cruzi amastigote DNA
  incorporation into T. cruzi DNA following 48 hours incubation (in words): incorporated
T. cruzi amastigote DNA; 48 hours, 0.73 μM
  % of cells that incorporated the DNA chemical label: 89 ± 2.7%
3T3 cells; 2 and 4 hour exposures, 73 μM
  activity against host cells after short exposure: less than 20%
3T3 cells
  Host cell 3T3 IC50 value 48 h: NA (NA = ≤50% activity at the highest concentration tested and an IC50 value could not be determined)
3T3 cells; 48 hours
  activity against 3T3 cells in the image-based assay: < 20%
HEK293 cells
  HEK293 IC50 value: NA (NA = ≤50% activity at the highest concentration tested and an IC50 value could not be determined)

## C#Cc1cn([C@@H]2O[C@H](CO)[C@@H](O)[C@@H]2I)c(=O)[nH]c1=O [I-ara-EdU, (2′S)-2′-deoxy-5-ethynyl-2′-iodo-uridine]
[2]; 24 hours exposure, highest test concentration 183 μM
  T. cruzi 24 IC50 value: NA (NA = ≤50% activity at the highest concentration tested and an IC50 value could not be determined)
[2]; 48 hours incubation, compound wash off, further 72 hours without compound, highest test concentration 183 μM
  T. cruzi Wash off IC50 value: NA (NA = ≤50% activity at the highest concentration tested and an IC50 value could not be determined)
[2]; 48 hours incubation, highest test concentration 183 μM
  T. cruzi 48 IC50 value: NA (NA = ≤50% activity at the highest concentration tested and an IC50 value could not be determined)
[2]; 48 h, 183 μM, 48 hours incubation, read-out: inhibition of T. cruzi growth at highest test concentration
  inhibition at 183 µM: ≤ 50%
T. cruzi amastigote DNA
  incorporation into T. cruzi DNA following 48 hours incubation (in words): did not
T. cruzi amastigote DNA; 48 hours, concentrations up to a maximum of 73 μM
  incorporation (no incorporation observed): < 20%
3T3 cells
  Host cell 3T3 IC50 value 48 h: NA (NA = ≤50% activity at the highest concentration tested and an IC50 value could not be determined)
HEK293 cells
  HEK293 IC50 value: NA (NA = ≤50% activity at the highest concentration tested and an IC50 value could not be determined)

## CC1CS(=O)(=O)CCN1/N=C/c1ccc([N+](=O)[O-])o1 (centres unmarked) [NFX, nifurtimox]
[2]; 48 hours exposure
  SI (selectivity index to T. cruzi intracellular amastigotes in relation to HEK293 cells): > 143
[2]; read-out: IC50 value of positive assay control in the 2 and 4 hour exposure experiment, control exposure for 48 hours
  IC50: 1000 ± 101 nM
[2]; [5]
  IC50: 1720 ± 860 nM
[2]; [6]
  Emax: 100%
[2]; 48 hours exposure, well-established intracellular infection assay, mean ± SD, POSA value based on sub-optimal effect (Emax 75%), read-out: IC50 value Infected cells (Hoechst)
  IC50: 800 ± 90 nM
[2]; 48 hours incubation, compound wash off, further 72 hours without compound, highest test concentration 183 μM, read-out: T. cruzi Wash off IC50 value
  IC50: 1410 ± 1080 nM
[2]; 48 hours incubation, wash off, further 72 hours without compound, read-out: T. cruzi Wash off relative Emax (in brackets) (converted)
  Emax: 100%
[2]; [7]
  IC50: 970 ± 26 nM
[2]; [8]
  Emax: 100%
[4]; 2 h, read-out: mean inhibition of incorporation of EdU into the parasite DNA
  inhibition at 63 µM: 57 ± 9.1%
[4]; then 0.37 μM EdU for 4 hours, number of EdU incorporating parasites, read-out: IC50 value Amastigotes (EdU)
  IC50: 210 ± 1.8 nM
[4]; number of Hoechst identified parasites in infected cells, read-out: IC50 value Amastigotes (Hoechst)
  IC50: 320 ± 24 nM
3T3 cells
  Host cell 3T3 IC50 value 48 h: NA (NA = ≤50% activity at the highest concentration tested and an IC50 value could not be determined)
HEK293 cells
  HEK293 IC50 value: NA (NA = ≤50% activity at the highest concentration tested and an IC50 value could not be determined)
